Measured values as given in the supplement of paper PMC10307832.

What was measured:
Test in all cases: relative viability (nuclei count vs DMSO), 5 days (fraction); higher = more cells survive
[1] = compound: C1=CC=C2C(=C1)N=C(S2)C(C#N)C3=NC(=NC=C3)NCCC4=CN=CC=C4
How it was run: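 Lung cancer cell lines in 1536-well plates were exposed by pinning to five library-drug doses (not always all listed) √10 apart, following an overnight hold at 37 °C. MetaXpress counted Hoechst-stained nuclei from 4× images taken after 5 days without medium change. Viability is the median ratio of treated-well to vehicle-well nuclei across plates. Plates required control CV below 25% and at least one doubling.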

CUDC-101 + Foretinib = compound: C#Cc1cccc(Nc2ncnc3cc(OC)c(OCCCCCCC(=O)NO)cc23)c1 [CUDC-101] + COc1cc2c(Oc3ccc(NC(=O)C4(C(=O)Nc5ccc(F)cc5)CC4)cc3F)ccnc2cc1OCCCN1CCOCC1 [Foretinib] (partner 0.25 µM)
How it was run: (§1)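 Lung cancer cell lines in 1536-well plates got either a single drug or a fixed anchor-drug dose together with five library-drug doses (not always all listed) in √10 steps, by pin tool, on the day after seeding. Nuclei were counted after 5 days, and relative viability is the treated-to-vehicle ratio of nuclei counts. Values are medians of duplicate plates.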

CUDC-101 + Lapatinib = compound: C#Cc1cccc(Nc2ncnc3cc(OC)c(OCCCCCCC(=O)NO)cc23)c1 [CUDC-101] + CS(=O)(=O)CCNCc1ccc(-c2ccc3ncnc(Nc4ccc(OCc5cccc(F)c5)c(Cl)c4)c3c2)o1 [Lapatinib] (partner 2 µM)
How it was run: as §1

[2] = compound: C1=CC=C2C(=C1)N=C(S2)C(C#N)C3=NC(=NC=C3)NCCC4=CN=CC=C4 + Cc1cc(Nc2cc(N3CCN(C)CC3)nc(Sc3ccc(NC(=O)C4CC4)cc3)n2)n[nH]1 [Tozasertib] (partner 0.1 µM)
How it was run: as §1

Row | Cell Line | relative viability ([1]; 0.005 µM) | relative viability ([1]; 0.01581 µM) | relative viability ([1]; 0.05 µM) | relative viability ([1]; 0.1581 µM) | relative viability ([1]; 0.5 µM) | relative viability (CUDC-101 + Foretinib; first compound 0.01 µM) | relative viability (CUDC-101 + Foretinib; first compound 0.03162 µM) | relative viability (CUDC-101 + Foretinib; first compound 0.1 µM) | relative viability (CUDC-101 + Foretinib; first compound 0.3162 µM) | relative viability (CUDC-101 + Foretinib; first compound 1 µM) | relative viability (CUDC-101 + Lapatinib; first compound 0.01 µM) | relative viability (CUDC-101 + Lapatinib; first compound 0.03162 µM) | relative viability (CUDC-101 + Lapatinib; first compound 0.1 µM) | relative viability (CUDC-101 + Lapatinib; first compound 0.3162 µM) | relative viability (CUDC-101 + Lapatinib; first compound 1 µM) | relative viability ([2]; first compound 0.005 µM) | relative viability ([2]; first compound 0.01581 µM) | relative viability ([2]; first compound 0.05 µM) | relative viability ([2]; first compound 0.1581 µM) | relative viability ([2]; first compound 0.5 µM)
1 | NCI-H2023 | 0.887 | 1.02 | 0.889 | 1.16 | 0.935 | 0.759 | 0.672 | 0.836 | 0.764 | 0.615 | 0.991 | 0.813 | 1.04 | 0.936 | 0.402 | 0.288 | 0.386 | 0.251 | 0.275 | 0.136
2 | 201T | 0.963 | 0.876 | 1.01 | 1.03 | 0.89 | 1.11 | 0.835 | 1.03 | 1.28 | 0.936 | 1.03 | 1.02 | 0.943 | 1.08 | 0.872 | 0.788 | 0.964 | 0.941 | 0.929 | 0.837
3 | LK-2 | 0.753 | 1.11 | 0.97 | 1.21 | 1.07 | 1.23 | 1.19 | 0.957 | 0.819 | 0.554 | 0.981 | 0.888 | 0.973 | 0.887 | 0.559 | 0.171 | 0.186 | 0.164 | 0.174 | 0.184
4 | SW 1573 | 0.855 | 1.11 | 0.792 | 1.13 | 0.978 | 1.02 | 1.03 | 1.08 | 0.862 | 0.611 | 1.05 | 1.15 | 1.23 | 1.2 | 0.813 | 0.174 | 0.179 |  | 0.175 | 0.156
5 | NCI-H647 | 0.814 | 0.997 | 0.927 | 1.16 | 0.893 | 1.16 | 1.11 | 1.14 | 1.21 | 0.877 | 1.25 | 1.1 | 1.02 | 0.863 | 0.271 | 0.315 | 0.342 | 0.289 | 0.292 | 0.151
6 | HCC-78 | 1.08 | 0.92 | 1.07 | 1.07 | 0.996 | 0.549 | 0.56 | 0.543 | 0.494 | 0.268 | 0.882 | 0.92 | 0.808 | 0.701 | 0.631 | 0.423 | 0.503 | 0.472 | 0.552 | 0.261
7 | NCI-H727 | 0.904 | 0.903 | 0.832 | 1.13 | 0.78 | 0.975 | 0.85 | 0.685 | 0.778 | 0.424 | 0.825 | 0.531 | 0.844 | 0.801 | 0.678 | 0.629 | 0.674 | 0.51 | 0.512 | 0.686
8 | BEN | 0.864 | 0.908 | 0.97 | 1.04 | 1.08 | 0.822 | 0.547 | 0.804 | 0.581 | 0.648 | 0.925 | 0.628 | 0.707 | 0.739 | 0.539 | 0.261 | 0.49 | 0.457 | 0.638 | 0.435
9 | NCI-H650 | 0.86 | 0.782 | 1.04 | 1.14 | 1.02 | 1.07 | 1.01 | 1.03 | 1.15 | 0.801 | 0.947 | 1.1 | 0.899 | 0.582 | 0.405 | 0.633 |  | 0.708 | 0.742 | 0.644
10 | NCI-H1793 | 0.716 | 0.906 | 0.852 | 1.05 | 0.925 | 0.669 | 0.449 | 0.628 | 0.5 | 0.403 | 0.813 | 0.63 | 0.731 | 0.718 | 0.485 | 0.262 | 0.334 | 0.264 | 0.32 | 0.317
11 | NCI-H1915 | 0.925 | 1.03 | 0.969 | 1.1 | 0.94 | 1.09 | 1.04 | 1.08 | 1.09 | 0.707 | 1.02 | 1.04 | 0.977 | 0.911 | 0.837 | 0.343 | 0.455 | 0.442 | 0.534 | 0.305
12 | HCC-366 | 0.883 | 1.06 | 0.995 | 1.05 | 1.05 | 0.939 | 0.93 | 0.95 | 0.847 | 0.882 | 1.07 | 1.06 | 1.07 | 0.755 | 0.459 | 0.102 | 0.087 | 0.075 | 0.0798 | 0.0706
13 | SK-LU-1 | 0.783 | 1.21 | 1.03 | 1.18 | 0.948 | 0.885 | 0.793 | 0.891 | 0.771 | 0.662 | 1.01 | 0.922 | 0.712 | 0.844 | 0.446 | 0.293 | 0.344 | 0.33 | 0.309 | 0.299
14 | ABC-1 | 0.974 | 0.826 | 1.08 | 1.07 | 0.835 | 1.04 | 0.797 | 1.07 | 0.704 | 0.519 | 1.06 | 1.05 | 1.21 |  | 1.26 | 0.202 | 0.196 | 0.169 | 0.152 | 0.184
15 | NCI-H1666 | 1.09 | 0.988 | 1.04 | 1.01 | 0.99 | 0.958 | 0.979 | 1 | 1.06 | 0.932 | 0.64 | 0.692 | 0.583 | 0.664 | 0.38 | 0.642 | 0.615 | 0.541 | 0.651 | 0.617
16 | COR-L23 | 0.944 | 1.13 | 1.05 | 1.2 | 0.884 | 1.12 | 0.947 | 0.924 | 0.96 | 0.494 | 1.02 | 1.02 | 0.889 | 1.1 | 0.449 | 0.179 | 0.169 | 0.175 | 0.167 | 0.149
17 | NCI-H460 | 0.925 | 0.999 | 0.995 | 1.14 | 0.934 | 0.991 | 0.917 | 1.02 | 1.03 | 0.93 | 1.04 | 0.994 | 0.873 | 0.919 | 0.339 | 0.396 | 0.282 | 0.302 | 0.204 | 0.0413
